Earlier results on one compound are cited in patent US20210337800A1, “METHOD AND SYSTEM OF IMPROVING THE PERSONAL PROTECTIVE EQUIPMENT OF […] AND THE GENERAL PUBLIC USING ANT[…]” (Sockdocs Inc., priority 2020, published 2021).

The structures appear in SMILES notation.

The test system of the series is viruses. To be noted: testing in 2006; no method or virus named.

For `CCCCCCCCCCCCCCCCCC[N+](C)(C)CCC[Si](OC)(OC)OC.[Cl-]` [3-(trimethoxysilyl) propyldimethyloctadecyl ammonium chloride], the anti-viral activity result is listed as “showed anti-viral activity”.
